According to ChEMBL document CHEMBL4680234, “Antibacterial AZT derivative regulates metastasis of breast cancer cells” (Eur J Med Chem, 2020):
In brackets after ≈: the same amount, converted by molar mass.

Columns and labels:
Staphylococcus aureus [1] = assay: Antibacterial activity against Staphylococcus aureus KCTC 1621 assessed as reduction in bacterial growth incubated for 18 to 22 hrs by spectrophotometry based broth microdilution method; assay type: functional; conditions: time 18-22 hrs, read-out: MIC100
Pseudomonas aeruginosa [2] = assay: Antibacterial activity against Pseudomonas aeruginosa KCTC 1637 assessed as reduction in bacterial growth incubated for 18 to 22 hrs by spectrophotometry based broth microdilution method; assay type: functional; conditions: time 18-22 hrs, read-out: MIC100
Bacillus subtilis [3] = assay: Antibacterial activity against Bacillus subtilis KCTC 3068 assessed as reduction in bacterial growth incubated for 18 to 22 hrs by spectrophotometry based broth microdilution method; assay type: functional; conditions: time 18-22 hrs, read-out: MIC100
Escherichia coli [4] = assay: Antibacterial activity against Escherichia coli KCTC 1682 assessed as reduction in bacterial growth incubated for 18 to 22 hrs by spectrophotometry based broth microdilution method; assay type: functional; conditions: time 18-22 hrs, read-out: MIC100
Staphylococcus aureus [5] = assay: Antimicrobial activity against methicillin-resistant Staphylococcus aureus CCARM 3090 assessed as reduction in microbial growth incubated for 18 to 24 hrs by broth microdilution method; assay type: functional; conditions: time 18-24 hrs
Staphylococcus aureus [6] = assay: Antimicrobial activity against methicillin-resistant Staphylococcus aureus CCARM 3095 assessed as reduction in microbial growth incubated for 18 to 24 hrs by broth microdilution method; assay type: functional; conditions: time 18-24 hrs
Staphylococcus aureus [7] = assay: Antimicrobial activity against methicillin-resistant Staphylococcus aureus CCARM 3089 assessed as reduction in microbial growth incubated for 18 to 24 hrs by broth microdilution method; assay type: functional; conditions: time 18-24 hrs
Pseudomonas aeruginosa [8] = assay: Potency index, ratio of melittin MIC to test compound MIC for antibacterial activity against Pseudomonas aeruginosa KCTC 1637; assay type: functional
Erythrocyte [9] = assay: Hemolytic activity in sheep RBC at 16 ug/ml measured after 2 hrs by ELISA; assay type: cell-based, Ovis aries; conditions: dose 16 µg/ml
[10] = Therapeutic index, ratio of MHC for sheep RBC to geometric mean of peptide MIC for Pseudomonas aeruginosa KCTC 1637; assay type: toxicity; conditions: sheep red blood cells (erythrocytes), read-out: TI
[11] = Therapeutic index, ratio of MHC for sheep RBC to geometric mean of peptide MIC for Bacillus subtilis KCTC 3068; assay type: toxicity; conditions: sheep red blood cells (erythrocytes), read-out: TI
Staphylococcus aureus [12] = assay: Potency index, ratio of melittin MIC to test compound MIC for antibacterial activity against Staphylococcus aureus KCTC 1621; assay type: functional
Bacillus subtilis [13] = assay: Potency index, ratio of melittin MIC to test compound MIC for antibacterial activity against Bacillus subtilis KCTC 3068; assay type: functional
Erythrocyte [14] = assay: Hemolytic activity in sheep RBC measured after 2 hrs by ELISA; assay type: ADME, cell-based, Ovis aries
[15] = Therapeutic index, ratio of MHC for sheep RBC to geometric mean of peptide MIC for Staphylococcus aureus KCTC 1621; assay type: toxicity; conditions: sheep red blood cells (erythrocytes), read-out: TI
[16] = Therapeutic index, ratio of MHC for sheep RBC to geometric mean of peptide MIC for Escherichia coli KCTC 1682; assay type: toxicity; conditions: sheep red blood cells (erythrocytes), read-out: TI
[17] = Hemolytic activity in sheep RBC assessed as hemolysis at 4 ug/ml measured after 2 hrs by ELISA relative to control; assay type: ADME, cell-based, Ovis aries, Erythrocyte; conditions: sheep red blood cells (erythrocytes), at 4 µg/mL, read-out: Activity
Escherichia coli [18] = assay: Potency index, ratio of melittin MIC to test compound MIC for antibacterial activity against Escherichia coli KCTC 1682; assay type: functional

SMILES | MIC (Staphylococcus aureus [1]) [mg/L] | MIC (Pseudomonas aeruginosa [2]) [mg/L] | MIC (Bacillus subtilis [3]) [mg/L] | MIC (Escherichia coli [4]) [mg/L] | selectivity ratio [10] | selectivity ratio [11] | MHC (Erythrocyte [14]) [µg/mL] | selectivity ratio [15] | selectivity ratio [16] | also measured
Cc1cn([C@H]2C[C@H](NC(=O)CCCc3ccccc3)[C@@H](CNC(=O)CCCc3ccccc3)O2)c(=O)nc1NCCNC(=N)N | 64 (≈ 104 µM) | 32 (≈ 51.9 µM) | 64 (≈ 104 µM) | > 64 | – | – | – | – | – | –
Cc1cn([C@H]2C[C@H](NC(=O)C3CCCCC3)[C@@H](CNC(=O)C3CCCCC3)O2)c(=O)nc1N(CCCNC(=N)N)CCCNC(=N)N | 32 (≈ 48.6 µM) | 16 (≈ 24.3 µM) | 32 (≈ 48.6 µM) | > 64 | – | – | – | – | – | –
O=C(O)c1cn(C2CC2)c2cc(N3CCNCC3)c(F)cc2c1=O [CIPROFLOXACIN] | – | – | – | – | – | – | – | – | – | MIC (Staphylococcus aureus [5]): 512 mg/L; MIC (Staphylococcus aureus [6]): 512 mg/L; MIC (Staphylococcus aureus [7]): 512 mg/L
Cc1cn([C@H]2C[C@H](NC(=O)C3CCCCC3)[C@@H](CNC(=O)C3CCCCC3)O2)c(=O)nc1NCCNC(=N)N | > 64 | > 64 | > 64 | > 64 | – | – | – | – | – | –
Cc1cn([C@H]2C[C@H](NC(=O)CC34CC5CC(CC(C5)C3)C4)[C@@H](CNC(=O)CC34CC5CC(CC(C5)C3)C4)O2)c(=O)nc1N(CCCN)CCCN | 4 (≈ 5.67 µM) | 4 (≈ 5.67 µM) | 2 (≈ 2.83 µM) | 32 (≈ 45.3 µM) | 5 | 5 | 52 | 5 | 5 | Ratio (Pseudomonas aeruginosa [8]): 4; Activity (Erythrocyte [9]): Non-Toxic; Ratio (Staphylococcus aureus [12]): 2; Ratio (Bacillus subtilis [13]): 4
CC[C@H](C)[C@H](NC(=O)CN)C(=O)NCC(=O)N[C@@H](C)C(=O)N[C@H](C(=O)N[C@@H](CC(C)C)C(=O)N[C@@H](CCCCN)C(=O)N[C@H](C(=O)N[C@@H](CC(C)C)C(=O)N[C@H](C(=O)N[C@H](C(=O)NCC(=O)N[C@@H](CC(C)C)C(=O)N1CCC[C@H]1C(=O)N[C@@H](C)C(=O)N[C@@H](CC(C)C)C(=O)N[C@H](C(=O)N[C@@H](CO)C(=O)N[C@@H](Cc1c[nH]c2ccccc12)C(=O)N[C@H](C(=O)N[C@@H](CCCCN)C(=O)N[C@@H](CCCNC(=N)N)C(=O)N[C@@H](CCCCN)C(=O)N[C@@H](CCCNC(=N)N)C(=O)N[C@@H](CCC(N)=O)C(=O)N[C@@H](CCC(N)=O)C(N)=O)[C@@H](C)CC)[C@@H](C)CC)[C@@H](C)O)[C@@H](C)O)C(C)C)C(C)C [MELITTIN] | – | – | – | – | 0.3 | 0.3 | 4 | 0.3 | 0.3 | hemolysis at 2 h, 4 ug/ml [17]: 12%
CCCCCC(=O)NC[C@H]1O[C@@H](n2cc(C)c(N(CCCNC(=N)N)CCCNC(=N)N)nc2=O)C[C@@H]1NC(=O)CCCCC | 32 (≈ 50.5 µM) | 16 (≈ 25.2 µM) | 32 (≈ 50.5 µM) | > 64 | – | – | – | – | – | –
CCCCCC(=O)NC[C@H]1O[C@@H](n2cc(C)c(NCCNC(=N)N)nc2=O)C[C@@H]1NC(=O)CCCCC | > 64 | 64 (≈ 123 µM) | > 64 | > 64 | – | – | – | – | – | –
Cc1cn([C@H]2C[C@H](NC(=O)CC34CC5CC(CC(C5)C3)C4)[C@@H](CNC(=O)CC34CC5CC(CC(C5)C3)C4)O2)c(=O)nc1NCCNC(=N)N | 4 (≈ 5.91 µM) | > 64 | 4 (≈ 5.91 µM) | 64 (≈ 94.5 µM) | 0.9 | 0.9 | 43 | 0.9 | 0.9 | Ratio (Pseudomonas aeruginosa [8]): 2; Activity (Erythrocyte [9]): Non-Toxic; Ratio (Escherichia coli [18]): 2
CCCCCC(=O)NC[C@H]1O[C@@H](n2cc(C)c(N(CCCN)CCCN)nc2=O)C[C@@H]1NC(=O)CCCCC | > 64 | 8 (≈ 14.6 µM) | 64 (≈ 116 µM) | > 64 | – | – | – | – | – | –
